SMILES strings stand for the structures.

Sequence of human PRMT5/MEP50 (O14744 whole entry): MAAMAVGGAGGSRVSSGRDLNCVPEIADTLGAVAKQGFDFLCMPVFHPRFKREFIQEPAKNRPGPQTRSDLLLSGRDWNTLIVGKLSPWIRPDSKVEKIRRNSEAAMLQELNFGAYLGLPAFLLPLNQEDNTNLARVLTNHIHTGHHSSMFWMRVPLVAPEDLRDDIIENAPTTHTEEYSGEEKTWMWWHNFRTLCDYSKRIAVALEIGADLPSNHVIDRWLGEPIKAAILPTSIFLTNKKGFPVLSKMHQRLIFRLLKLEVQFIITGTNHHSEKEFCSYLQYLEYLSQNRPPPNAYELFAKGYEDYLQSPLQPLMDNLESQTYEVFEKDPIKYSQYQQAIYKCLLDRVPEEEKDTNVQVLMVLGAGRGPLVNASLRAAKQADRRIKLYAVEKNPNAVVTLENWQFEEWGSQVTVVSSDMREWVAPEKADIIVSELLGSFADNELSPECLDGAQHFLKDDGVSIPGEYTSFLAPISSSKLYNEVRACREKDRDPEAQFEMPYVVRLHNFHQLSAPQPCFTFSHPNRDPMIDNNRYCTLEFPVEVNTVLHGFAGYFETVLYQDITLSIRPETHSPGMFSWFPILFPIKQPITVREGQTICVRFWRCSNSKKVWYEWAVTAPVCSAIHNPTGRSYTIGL
Sequence of human PRMT5/MEP50 (Q9BQA1 whole entry partner): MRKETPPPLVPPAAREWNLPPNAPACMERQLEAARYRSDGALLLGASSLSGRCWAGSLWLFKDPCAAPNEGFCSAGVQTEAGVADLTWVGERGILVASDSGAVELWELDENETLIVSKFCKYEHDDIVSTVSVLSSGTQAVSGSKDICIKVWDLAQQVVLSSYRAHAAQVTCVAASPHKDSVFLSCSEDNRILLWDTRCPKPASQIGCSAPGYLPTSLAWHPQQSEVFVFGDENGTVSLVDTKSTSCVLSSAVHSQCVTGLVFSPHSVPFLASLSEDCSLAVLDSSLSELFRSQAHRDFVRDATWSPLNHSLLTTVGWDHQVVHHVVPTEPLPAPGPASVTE

This test has as its target human PRMT5/MEP50 (Homo sapiens (Human), UniProt O14744). Kind of test: PRMT5 chemiluminescent assay. Conditions: human PRMT5/MEP50 expressed in HEK293 cells; biotinylated histone peptides; Histone H4 monomethyl R3 antibody; chemiluminescent readout. It is filed as biochemical. How it is done: A PRMT5 chemiluminescent assay was used to measure the IC50 activity of PRMT5 of the compounds of Examples 1A to 7 above. Biotinylated histone peptides were synthesized and attached to 384-well plates. Compound serial dilutions were performed and added to the assay plate. Histone H4 monomethyl R3 antibody was obtained from Abcam. A master mix for each well was prepared and human PRMT5/MEP50 (expressed in HEK293 cells) diluted in assay buffer to a concentration of 5 ng/μL. The reaction was incubated and slowly rotated for 60 minutes at the point of PRMT5/MEP50 addition. The supernatant from the wells was removed and blocking buffer was added to each well and rotated for 10 minutes. The primary antibody was diluted and added to every well for 60 minutes, before it was removed and the wells washed. The horse raddish peroxidase (HRP)-coupled secondary antibody was diluted and added to each well with an incubation time of 30 minutes. The HRP chemiluminescent substrate was added to every well. The plate was read on a Flourstar Omega BMG Labtech instrument (Ortenberg, Germany) and the analysis of IC50 was performed using the Flourstar Omega BMG Labtech software.
As for `O=C(NC[C@H](O)CN1CCc2ccccc2C1)N1CCCC(c2cnccn2)C1` (stereo partly drawn) [Example 1BS, N-((S)-3-(3,4-dihydroisoquinolin-2(1H)-yl)-2-hydroxypropyl)-3-(pyrazin-2-yl)piperidine-1-carboxamide], 237 nM corresponded to half-maximal inhibition (IC50). That is a sub-micromolar value.
As for `Cc1cc(C2CCCN(C(=O)NC[C@H](O)CN3CCc4ccccc4C3)C2)ccn1` (stereo partly drawn) [Example 1BT, N-((S)-3-(3,4-dihydroisoquinolin-2(1H)-yl)-2-hydroxypropyl)-3-(2-methylpyridin-4-yl)piperidine-1-carboxamide], the figure is 127 nM.
Turning to `O=C(NC[C@H](O)CN1CCc2ccccc2C1)N1CCCC(c2ccc(F)cc2)C1` (stereo partly drawn) [Example 1BU, N-((S)-3-(3,4-dihydroisoquinolin-2(1H)-yl)-2-hydroxypropyl)-3-(4-fluorophenyl)piperidine-1-carboxamide], the IC50 (as a rule, the concentration that inhibits the measured activity by half) amounted to 12 nM.
As for `O=C(NC[C@H](O)CN1CCc2ccccc2C1)N1CCCC(c2cccnc2)C1` (stereo partly drawn) [Example 1BV, N-((S)-3-(3,4-dihydroisoquinolin-2(1H)-yl)-2-hydroxypropyl)-3-(pyridin-3-yl)piperidine-1-carboxamide], the figure is 57 nM; as for `O=C(NC[C@H](O)CN1CCc2ccccc2C1)N1CCCC(N2CCOCC2)C1` (stereo partly drawn) [Example 1BW, N-((S)-3-(3,4-dihydroisoquinolin-2(1H)-yl)-2-hydroxypropyl)-3-morpholinopiperidine-1-carboxamide], 2860 nM; as for `O=C(NC[C@H](O)CN1CCc2ccccc2C1)N1CCCC(N2CCSCC2)C1` (stereo partly drawn) [Example 1BX, N-((S)-3-(3,4-dihydroisoquinolin-2(1H)-yl)-2-hydroxypropyl)-3-thiomorpholinopiperidine-1-carboxamide], 634 nM.
As for `CN1CCN(C2CCCN(C(=O)NC[C@H](O)CN3CCc4ccccc4C3)C2)CC1` (stereo partly drawn) [Example 1BY, N-((S)-3-(3,4-dihydroisoquinolin-2(1H)-yl)-2-hydroxypropyl)-3-(4-methylpiperazin-1-yl)piperidine-1-carboxamide], the figure is 2650 nM; as for `O=C(NC[C@H](O)CN1CCc2ccccc2C1)N1CCCC(C2CCOCC2)C1` (stereo partly drawn) [Example 1BZ, N-((S)-3-(3,4-dihydroisoquinolin-2(1H)-yl)-2-hydroxypropyl)-3-(tetrahydro-2H-pyran-4-yl)piperidine-1-carboxamide], 270 nM; as for `O=C(NCC(O)CN1CCc2ccccc2C1)N1CCN(c2ccccc2)CC1` (stereo not shown) [Example 1C, N-[2-hydroxy-3-(1,2,3,4-tetrahydroisoquinolin-2-yl)propyl]-4-phenylpiperazine-1-carboxamide], 1240 nM.
Consider `O=C(NC[C@H](O)CN1CCc2ccccc2C1)N1CCCC(C2CCSCC2)C1` (stereo partly drawn) [Example 1CA, N-((S)-3-(3,4-dihydroisoquinolin-2(1H)-yl)-2-hydroxypropyl)-3-(tetrahydro-2H-thiopyran-4-yl)piperidine-1-carboxamide], for which the IC50 amounted to 58 nM. Compared with the last compound, the IC50 is about 21-fold lower.
`O=C(NC[C@H](O)CN1CCc2ccccc2C1)N1CCCC(N2CCCSCC2)C1` (stereo partly drawn) [Example 1CB, N-((S)-3-(3,4-dihydroisoquinolin-2(1H)-yl)-2-hydroxypropyl)-3-(1,4-thiazepan-4-yl)piperidine-1-carboxamide] showed an IC50 of 337 nM. This IC50 lies about 5.8-fold higher than the previous one.
For `O=C(NC[C@H](O)CN1CCc2ccccc2C1)N1CCCC(N2CCCOCC2)C1` (stereo partly drawn) [Example 1CC, N-((S)-3-(3,4-dihydroisoquinolin-2(1H)-yl)-2-hydroxypropyl)-3-(1,4-oxazepan-4-yl)piperidine-1-carboxamide], the IC50 stood at 1640 nM. This IC50 lies about 4.9-fold higher than the previous one.
Consider `O=C(NC[C@H](O)CN1CCc2ccccc2C1)N1CCC(N2CCOCC2)C1` (stereo partly drawn) [Example 1CD, N-((S)-3-(3,4-dihydroisoquinolin-2(1H)-yl)-2-hydroxypropyl)-3-morpholinopyrrolidine-1-carboxamide], for which the IC50 was 12300 nM.
As for `O=C(NC[C@H](O)CN1CCc2ccccc2C1)N1CCC(N2CCSCC2)C1` (stereo partly drawn) [Example 1CE, N-((S)-3-(3,4-dihydroisoquinolin-2(1H)-yl)-2-hydroxypropyl)-3-thiomorpholinopyrrolidine-1-carboxamide], the figure is 3100 nM.
As for `O=C(NC[C@H](O)CN1CCc2ccccc2C1)N1CCC(N2CCCSCC2)C1` (stereo partly drawn) [Example 1CF, N-((S)-3-(3,4-dihydroisoquinolin-2(1H)-yl)-2-hydroxypropyl)-3-(1,4-thiazepan-4-yl)pyrrolidine-1-carboxamide], the figure is 376 nM; as for `O=C(NC[C@H](O)CN1CCc2ccccc2C1)N1CCS(=O)(=O)C(c2ccccc2)C1` (stereo partly drawn) [Example 1CG, N-((S)-3-(3,4-dihydroisoquinolin-2(1H)-yl)-2-hydroxypropyl)-2-phenylthiomorpholine-4-carboxamide 1,1-dioxide], 422 nM.
As for `O=C(NC[C@H](O)CN1CCc2ccccc2C1)N1CCCC(N2CCN(Cc3ccccc3)CC2)C1` (stereo partly drawn) [Example 1CH, 3-(4-benzylpiperazin-1-yl)-N-((S)-3-(3,4-dihydroisoquinolin-2(1H)-yl)-2-hydroxypropyl)piperidine-1-carboxamide], the figure is 1920 nM; as for `O=C(NC[C@H](O)CN1CCc2ccccc2C1)N1CC[C@@H](c2ccccc2)C1` [Example 1CI, (S)-N-((S)-3-(3,4-dihydroisoquinolin-2(1H)-yl)-2-hydroxypropyl)-3-phenylpyrrolidine-1-carboxamide], 27 nM.
In the case of `O=C(NC[C@H](O)CN1CCc2ccccc2C1)N1CC[C@H](c2ccccc2)C1` [Example 1CJ, (R)-N-((S)-3-(3,4-dihydroisoquinolin-2(1H)-yl)-2-hydroxypropyl)-3-phenylpyrrolidine-1-carboxamide], 58 nM corresponded to half-maximal inhibition (IC50). Against the preceding compound, the IC50 is about 2.1-fold higher.
As for `O=C(NCC(O)CN1CCc2ccccc2C1)N1CCCC(O)C1` (stereo not shown) [Example 1CK, N-(3-(3,4-dihydroisoquinolin-2(1H)-yl)-2-hydroxypropyl)-3-hydroxypiperidine-1-carboxamide], the figure is 329 nM.
As for `CN1CCCN(C(=O)NCC(O)CN2CCc3ccccc3C2)CC1` (stereo not shown) [Example 1CL, N-(3-(3,4-dihydroisoquinolin-2(1H)-yl)-2-hydroxypropyl)-4-methyl-1,4-diazepane-1-carboxamide], the figure is 436 nM; as for `CC(=O)N1CCCN(C(=O)NCC(O)CN2CCc3ccccc3C2)CC1` (stereo not shown) [Example 1CM, 4-acetyl-N-(3-(3,4-dihydroisoquinolin-2(1H)-yl)-2-hydroxypropyl)-1,4-diazepane-1-carboxamide], 125 nM; as for `O=C(NCC(O)CN1CCc2ccccc2C1)N1CCCC(c2ccccc2)CC1` (stereo not shown) [Example 1CN, N-(3-(3,4-dihydroisoquinolin-2(1H)-yl)-2-hydroxypropyl)-4-phenylazepane-1-carboxamide], 1100 nM.
In turn, `O=C(NCC(O)CN1CCc2ccccc2C1)N1CCCCC(c2ccccc2)C1` (stereo not shown) [Example 1CO, N-(3-(3,4-dihydroisoquinolin-2(1H)-yl)-2-hydroxypropyl)-3-phenylazepane-1-carboxamide] came in with an IC50 of 17 nM. Compared with the last compound, the IC50 is about 65-fold lower.
As for `O=C(NCC(O)CN1CCc2ccccc2C1)N1CCN(Cc2ccccc2)CC1` (stereo not shown) [Example 1D, 4-benzyl-N-[2-hydroxy-3-(1,2,3,4-tetrahydroisoquinolin-2-yl)propyl]piperazine-1-carboxamide], the figure is 1870 nM; as for `O=C(NCC(O)CN1CCc2ccccc2C1)N1CCCC(c2ccccc2)C1` (stereo not shown) [Example 1E, N-[2-hydroxy-3-(1,2,3,4-tetrahydroisoquinolin-2-yl)propyl]-3-phenylpiperidine-1-carboxamide], 8 nM; as for `O=C(NCC(O)CN1CCc2ccccc2C1)N1CCC(c2ccccc2)CC1` (stereo not shown) [Example 1F, N-[2-hydroxy-3-(1,2,3,4-tetrahydroisoquinolin-2-yl)propyl]-4-phenylpiperidine-1-carboxamide], 457 nM.
As for `O=C(NCC(O)CN1CCc2ccccc2C1)N1CCC(Oc2ccccc2)CC1` (stereo not shown) [Example 1G, N-[2-hydroxy-3-(1,2,3,4-tetrahydroisoquinolin-2-yl)propyl]-4-phenoxypiperidine-1-carboxamide], the figure is 568 nM.
`O=C(NCC(O)CN1CCc2ccccc2C1)N1CCCC(Oc2ccccc2)C1` (stereo not shown) [Example 1H, N-[2-hydroxy-3-(1,2,3,4-tetrahydroisoquinolin-2-yl)propyl]-3-phenoxypiperidine-1-carboxamide] displayed an IC50 of 267 nM.
Regarding `O=C(NCC(O)CN1CCc2ccccc2C1)N1CCc2ccccc2C1` (stereo not shown) [Example 1I, N-[2-hydroxy-3-(1,2,3,4-tetrahydroisoquinolin-2-yl)propyl]-1,2,3,4-tetrahydroisoquinoline-2-carboxamide], 208 nM corresponded to half-maximal inhibition (IC50).
As for `O=C(NCC(O)CN1CCc2ccccc2C1)N1CCCCc2ccccc21` (stereo not shown) [Example 1J, N-[2-hydroxy-3-(1,2,3,4-tetrahydroisoquinolin-2-yl)propyl]-2,3,4,5-tetrahydro-1H-1-benzazepine-1-carboxamide], the figure is 320 nM.
As for `O=C(NCC(O)CN1CCc2ccccc2C1)N1CCCCC1` (stereo not shown) [Example 1L, N-[2-hydroxy-3-(1,2,3,4-tetrahydroisoquinolin-2-yl)propyl]piperidine-1-carboxamide], the figure is 1640 nM; as for `O=C(NCC(O)CN1CCc2ccccc2C1)N1CCCC1` (stereo not shown) [Example 1M, N-[2-hydroxy-3-(1,2,3,4-tetrahydroisoquinolin-2-yl)propyl]pyrrolidine-1-carboxamide], 6870 nM; as for `O=C(NCC(O)CN1CCc2ccccc2C1)N1CCCCCC1` (stereo not shown) [Example 1N, N-[2-hydroxy-3-(1,2,3,4-tetrahydroisoquinolin-2-yl)propyl]azepane-1-carboxamide], 2380 nM.

These data come from patent publication US11485731B2, “Compounds and methods useful in the treatment of a PRMT5-mediated disorder” (ARGONAUT THERAPEUTICS LIMITED, priority 2017, dated 2022).
